The subject of one test is Hsp90 client proteins. The experiment in a line: Western blotting of Hsp90 client proteins and Hsp70 in NSCLC cells. The format is cell-based, human. The following applies: for effect on level of SUV39H1: 24 h; for effect on Hsp90 client protein levels (EGFR, Akt, Cyclin D1 etc.): NSCLC cells. The procedure: Cells were incubated with HDN-1 at indicated concentrations and time, then washed with PBS twice, disrupted on ice for 30 min in loading buffer, and boiled for 10 min. Protein concentration was determined with BCA reagent. Equal amounts of protein in cell lysates were separated by SDS-PAGE, transferred to membranes, immunoblotted with indicated primary and secondary antibodies, and detected by chemiluminescence with the enhanced chemiluminescence detection reagents (PIERCE). The antibodies of following proteins were used: EGFR, phosphorylated EGFR (Tyr1068), Akt, phosphorylated Akt (Ser473), MAPK, phosphorylated MAPK (Thr202/Tyr204), ubiquitin, Hsp70, β-Actin; Abl, Stat3, phosphorylated Stat3 (Ser727), Raf-1, cyclin D1. For immunoprecipitation assay, cell lysate protein was incubated overnight at 4°C with the designated antibody and protein G-Sepharose (Amersham Biosciences) was added overnight while rocking. Precipitates were washed three times with lysis buffer and once with PBS, resuspended in 2 × loading buffer, and resolved by SDS-PAGE followed by immunoblot analysis.
(In general: In western blotting, separated proteins are transferred to a membrane and probed.)

For the next test, the target named is T1, full length Hsp90α (Homo sapiens, UniProt P07900).
T1 construct: For full length Hsp90α, Hsp90α was coupled to the surface of a GLH sensor chip using amine coupling
Description: SPR binding to full-length Hsp90α immobilized on sensor chip. The following applies: 25°C, 1:1 Langmuir model, read-out: dissociation constant (Kd) for full-length Hsp90α. The procedure: (§1) SPR analysis was carried out with a ProteOn XPR36 instrument (Bio-Rad) or ForteBio's Octet RED96 to determine binding of various molecules to full length Hsp90α or C-terminal Hsp90α. For full length Hsp90α, Hsp90α was coupled to the surface of a GLH sensor chip using amine coupling. The coupling has been performed according to the manufacturer's instructions. Binding experiments were performed with multiple concentrations of HDN-1 and chaetocin running over the surface of the chip at 25°C, at a constant flow rate of 30 μl/min in PBS-T (10 mM Phosphate, 150 mM NaCl, pH 7.4 and 0.005% Tween20 [v/v]). The sensor chip surface was regenerated using 0.85% H3PO4. Changes in mass due to the binding response were recorded as resonance units (RU). To obtain the dissociation constant (Kd), these responses were fit to a 1:1 Langmuir binding model by nonlinear regression using the BiaEvaluation 4.1 software program. For interplay of HDN-1 with other molecules, 50 μM 17-AAG, 50 μM novobiocin, or 100 μM ATP was injected into Hsp90α-immobilized chip and the RU values were recorded in succession for indicated time, then these compounds were replaced by 50 μM HDN-1, and RU values were recorded unceasingly. Similar experiments were conversely performed and RU values were recorded. […] Binding of samples (31.25–500 μM) to coated and uncoated reference sensors was measured over 60 s. […]
(Surface plasmon resonance follows binding to a sensor surface in real time, without labels.)

Test [1] deals with H1975 cells. The experiment in a line: Drug combination study HDN-1 and 17-AAG, MTT assay, H1975. The format is cell-based, human. The following applies: H1975, 72 h. The procedure: (§2) A modified tetrazolium salt assay was used to measure the inhibition of cancer cell growth. Cancer cells were plated into a 96-well microtiter plate containing 0.1 ml of growth media/well for 24 h, then were incubated with HDN-1 at indicated concentrations dissolved in DMSO for 72 h. 3-(4,5-Dimethylthiazol-2-yl)-2,5- diphenyltetrazoliumbromide (MTT) was added to each well of a 96-well plate. After 4 h incubation, the formazan product was dissolved and quantitated spectrophotometrically at a wavelength of 560 nm. Percent viability of each sample was calculated from the A560 values as follows: % viability = (A560 nm sample / A560 nm DMSO-treated cells × 100). The IC50 was defined as the concentration that gave rise to 50% inhibition of cell viability.
H1975 cell were seeded in triplicate in 96-well plates and treated with HDN-1 or 17-AAG alone or with the combination of HDN-1 and 17-AAG at the indicated doses. MTT assays were performed after 72 h of treatment. The Q (value) was calculated according to Jin's formula: Q = Ea+b/(Ea+Eb−Ea × Eb). Ea+b represented the inhibition rate of drug combination, Ea and Eb represented the inhibition rate of drug A and B alone, respectively. Q (value) = 0.85–1.15 stands for additivity, Q (value) > 1.15–2.0 stands for synergism, and Q (value) < 0.85–0.55 stands for antagonism.

Test [2] concerns the target C-terminus of ATP binding site (660–680 aa) of Hsp90α. The arrangement: method as in PMID 11751878. The settings on record: read-out: binding affinity to C-terminus of ATP binding site of Hsp90α; cited from earlier work.
In the next test the target is Hsp90α ATPase (Homo sapiens, UniProt P07900). Description: Hsp90α ATPase activity. It is filed as biochemical. The settings on record: data not shown.
Another test relates to HCC827 cells. The experiment in a line: MTT cell viability assay, HCC827. It is filed as cell-based, human. The settings on record: HCC827, 72 h, read-out: IC50 cell proliferation. The procedure:
as §2

The next test deals with T2, Hsp90α (Homo sapiens, UniProt P07900).
T2 construct: For full length Hsp90α, Hsp90α was coupled to the surface of a GLH sensor chip using amine coupling
The experiment in a line: Fluorescence polarization competitive assay, displacement of FITC-GA from Hsp90α. The settings on record: 200 nM FITC-GA, 30 nM Hsp90α; read-out: IC50, effect on the binding of GA to Hsp90. The procedure: Fluorescence polarization assays were performed under the following conditions: each 96-well plate contained 200 nM FITC-GA, Hsp90α (30 nM), and tested inhibitor (initial stock in DMSO) in a final volume of 100 μl. For each assay, background wells (buffer only), tracer controls (free, FITC-GA only), and bound GA controls (fluorescent GA in the presence of Hsp90) were included on each assay plate. The fraction of tracer bound to Hsp90 was correlated to the mP value and plotted against log10 values of competitor concentrations. The HDN-1 and 17-AAG concentrations at which 50% of bound GA was displaced was obtained by fitting the data. Fluorescence intensity measurements were obtained using a SpectraMax M5 (Molecular Devices, Sunnyvale, CA). The excitation and emission wavelengths were 485 nm and 530 nm, respectively.
(In general: Polarisation of emitted light reports the rotation of a fluorescent probe.)

The subject of test [3] is H1975 cells. Description: MTT cell viability assay, H1975. It is filed as cell-based. The settings on record: Homo sapiens, NCI-H1975, H1975, 72 h, read-out: IC50 cell proliferation. The procedure:
as §2

A further test deals with A549 cells. The experiment in a line: MTT cell viability assay, A549. It is filed as cell-based, human. The settings on record: A549, 72 h, read-out: IC50 cell proliferation. The procedure: as §2
For test [4], the target named is T3, C-terminal Hsp90 fragment (535–732aa) of human Hsp90α (Homo sapiens, UniProt P07900).
T3 construct: recombinant C-terminal Hsp90 fragment (535–732aa) of human Hsp90α
Description: ForteBio Octet binding to biotinylated C-terminal Hsp90α. The settings on record: Octet RED96, read-out: Kd for C-terminus of Hsp90α. The procedure:
as §1

The structures appear in SMILES notation. Like-named read-outs stand apart in the source and are kept apart here.

Regarding `CN1C(=O)[C@@]23C[C@]4([C@]56C[C@@]78SS[C@@](CO)(C(=O)N7[C@H]5Nc5ccccc56)N(C)C8=O)c5ccccc5N[C@@H]4N2C(=O)[C@]1(CO)SS3` [chaetocin], in the test with Hsp90 client proteins (Western blotting), the “effect on level of SUV39H1” value is “decline” and the “effect on Hsp90 client protein levels (EGFR, Akt, Cyclin D1 etc.)” value is listed as “degraded client proteins”. For the same molecule, at full length Hsp90α, the Kd is 16.8 µM.
With `C=CCNC1=C2C[C@@H](C)C[C@H](OC)[C@H](O)[C@@H](C)/C=C(\C)[C@H](OC(N)=O)[C@@H](OC)/C=C\C=C(/C)C(=O)NC(=CC1=O)C2=O` [17-AAG], the “Inhibition Rate Mean” value in the test on H1975 cells [1] (single agent 100 nM) was found to be 0.070; with H1975 cells [1] (single agent 200 nM), 0.267; with H1975 cells [1] (single agent 300 nM), 0.393.
Turning to `CO[C@@H]1[C@@H](OC(N)=O)[C@@H](O)[C@H](Oc2ccc3c(O)c(NC(=O)c4ccc(O)c(CC=C(C)C)c4)c(=O)oc3c2C)OC1(C)C` [Novobiocin], in test [2], the Kd is roughly 3300 µM.
As to `CN1C(=O)[C@]23SSS[C@@]1(CO)C(=O)N2[C@H]1Nc2ccccc2C1(C12c4ccccc4N[C@@H]1N1C(=O)[C@]4(CO)SS[C@]1(C(=O)N4C)[C@H]2O)[C@@H]3O` (stereo partly shown) [HDN-1], the “effect on Hsp90α ATPase activity” value on Hsp90α ATPase is recorded as “no effect”. Also, the IC50 in the test with HCC827 cells was 1.06 µM; in the test on HCC827 cells (Homo sapiens) it was 0.54 µM; on Hsp90α it was greater than 10 µM; in the test with H1975 cells [3] it was 0.22 µM; with A549 cells, 0.54 µM; with A549 cells (Homo sapiens), 1.06 µM. For the same molecule, the inhibition (in general, the drop in the measured response relative to a control, in per cent) at 0.1 µM with H1975 cells [1] (Homo sapiens, NCI-H1975, single agent 100 nM, read-out: Inhibition Rate Mean) was 5.1%. In addition, the inhibition at 0.2 µM in the test on H1975 cells [1] (Homo sapiens, NCI-H1975, single agent 200 nM, read-out: Inhibition Rate Mean) came out at 37.1%. Moreover, in the test with Hsp90 client proteins (Western blotting), the “effect on level of SUV39H1” value is recorded as “decline”. Further, the “effect on Hsp70 expression” value with Hsp90 client proteins (H1975, HCC827, A549 cells, Western blotting) was “did not obviously affect”. Also, the “effect on HIF-1α” value with Hsp90 client proteins (H1975 and A549 cells, CoCl2-induced hypoxia or 5% CO2 and 2% O2) is reported as “degraded”. In addition, the “effect on Hsp90 client protein levels (EGFR, Akt, Cyclin D1 etc.)” value in the test on Hsp90 client proteins (Western blotting) is “reduced the expression levels”. For the same molecule, the Kd was determined as 14.6 µM on full length Hsp90α and 201 µM in [4].

The record behind these values is publication PMC4467147, “Identification of epipolythiodioxopiperazines HDN-1 and chaetocin as novel inhibitor of heat shock protein 90” (Oncotarget, 2015).
